The text below walks through data of patent publication US10711011B2, “Substituted oxazolidines as anti-bacterial agents” (BUGWORKS RESEARCH, INC., priority 2016, dated 2020).

In brackets after ≈: the same amount, converted by molar mass.

One experiment relates to A. baumannii ATCC 19606. Put plainly: Minimum Inhibitory Concentration (MIC) in LB media. It is filed as cell-based, Acinetobacter baumannii. Conditions: for MIC: Acinetobacter baumannii, ATCC19606, LB Media. The text has this:
(§1) The compounds of Formula I are of interest due to their potent antibacterial effects. The ability of the invention compounds disclosed herein to achieve an antibacterial effect may be evaluated with regard to their ability to inhibit the growth of bacterial species like Escherichia coli ATCC 25922, Staphylococcus aureus ATCC 29213, Klebsiella pneumoniae ATCC 13883, Acinetobacter baumannii ATCC 19606, Pseudomonas aurigenosa ATCC 27853, Enterococcus faecalis ATCC 29212 and Enterococcus faecalis ATCC 29212 using an assay based on the following Minimum Inhibitory Concentration (MIC) protocol:
(§2) The test bacteria are grown in Luria Bertani Broth (HIMEDIA M1245), 25 grams of the powder is dissolved in 1000 ml distilled water and sterilized by autoclaving at 15 lbs pressure (121° C.) for 20 minutes. The medium sterility is checked by incubating at 37° C. for a period of 48 h.
(§3) Bacterial cultures that are stored as glycerol stocks at −80° C. are sub cultured on LB agar plates to obtain isolated colonies. A single colony of each strain is cultured in LB broth. The cultures are incubated at 37° C., 200 rpm till they reach an optical density (OD at 600 nm) of 0.8 to 1. […] Test compounds are dissolved in dimethyl sulfoxide (DMSO) to a stock concentration of 4 mg/ml. A twofold dilution series of this DMSO stock is prepared in a 96 well V bottom microtitre plate from rows A to H. A 3 μL volume of these dilutions are transferred to a 96-well flat bottom microtitre assay plate. Controls to monitor the effects of DMSO and media sterility are included. Each well is inoculated with 150 μL of the above diluted culture. The plates are incubated at 37° C. overnight in a humidified incubator. The following morning, the plates are read using a Spectrophotometer at 600 nm wavelength. […] The antibacterial activity (MIC) determined against representative Gram positive (S. aureus, E. faecalis) and Gram negative (E. coli, P. aurigenosa, K. pneumoniae and A. baumannii) pathogen were reported Table 1.

For another experiment, the system named is K. pneumoniae ATCC 13883. Nature of the experiment: Minimum Inhibitory Concentration (MIC) in LB media. Conditions: Klebsiella pneumoniae, ATCC13883, LB Media. The experiment is classed as cell-based, Klebsiella pneumoniae.
Excerpt: as §1, §2, §3

The subject of a further experiment is E. faecalis ATCC 29212. Put plainly: Minimum Inhibitory Concentration (MIC) in LB media. It is filed as cell-based, Enterococcus faecalis. Conditions: Enterococcus faecalis, ATCC29212.
Excerpt: as §1, §2, §3

The subject of a further experiment is P. aurigenosa ATCC 27853. Put plainly: Minimum Inhibitory Concentration (MIC) in LB media. It is filed as cell-based, Pseudomonas aurigenosa. Conditions: Pseudomonas, ATCC27853, LB Media.
Excerpt: as §1, §2, §3

A further experiment deals with E. coli ATCC 25922. Nature of the experiment: Minimum Inhibitory Concentration (MIC) in LB media. It is filed as cell-based, Escherichia coli. Conditions: Escherichia coli, ATCC25922, LB Media.
Excerpt: as §1, §2, §3

In another experiment the test system is S. aureus ATCC 29213. Nature of the experiment: Minimum Inhibitory Concentration (MIC) in LB media. The experiment is classed as cell-based, Staphylococcus aureus. Conditions: for MIC: Staphylococcus aureus, ATCC29213, LB Media.
Excerpt: as §1, §2, §3

In another experiment the target is E. coli DNA gyrase (Escherichia coli, UniProt P0AES4+P0AES6). Nature of the experiment: biochemical. Conditions: supercoiling assay.
Chain of E. coli DNA gyrase (P0AES4 whole entry, one chain of several): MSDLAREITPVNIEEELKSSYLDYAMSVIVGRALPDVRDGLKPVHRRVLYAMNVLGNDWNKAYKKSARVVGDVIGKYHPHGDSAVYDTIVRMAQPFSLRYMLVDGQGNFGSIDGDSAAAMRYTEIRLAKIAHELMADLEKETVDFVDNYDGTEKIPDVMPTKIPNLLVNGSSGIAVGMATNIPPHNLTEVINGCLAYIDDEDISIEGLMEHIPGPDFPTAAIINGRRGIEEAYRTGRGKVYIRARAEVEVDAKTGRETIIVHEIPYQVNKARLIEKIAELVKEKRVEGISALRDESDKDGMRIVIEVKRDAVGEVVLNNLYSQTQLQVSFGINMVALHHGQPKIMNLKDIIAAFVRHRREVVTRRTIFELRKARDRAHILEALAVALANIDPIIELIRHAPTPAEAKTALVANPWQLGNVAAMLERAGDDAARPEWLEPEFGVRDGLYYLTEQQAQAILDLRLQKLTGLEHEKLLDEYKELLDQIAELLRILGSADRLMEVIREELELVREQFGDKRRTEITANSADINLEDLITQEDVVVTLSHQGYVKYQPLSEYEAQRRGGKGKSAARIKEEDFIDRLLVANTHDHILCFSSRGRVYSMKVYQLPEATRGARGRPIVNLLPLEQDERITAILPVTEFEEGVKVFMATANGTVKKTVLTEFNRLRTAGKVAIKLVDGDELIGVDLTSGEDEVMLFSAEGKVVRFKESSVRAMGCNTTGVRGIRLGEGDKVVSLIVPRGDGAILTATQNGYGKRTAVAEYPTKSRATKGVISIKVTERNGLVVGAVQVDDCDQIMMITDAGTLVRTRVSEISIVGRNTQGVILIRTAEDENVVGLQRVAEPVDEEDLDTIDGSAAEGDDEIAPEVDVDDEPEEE

Usually MIC stands for the smallest concentration in the dilution series that meets the test's criterion for growth inhibition. As usually defined, the IC50 is the concentration needed to halve the response being measured. Low values mean greater potency in that assay, high ones weaker potency in that assay. Consider `CN1C(=O)Cc2ccc(F)c(CCNCCC3CN(c4ccc5c(n4)NC(=O)CO5)C(=O)O3)c21` (racemic) [Example 11, 6-(5-(2-((2-(6-fluoro-1-methyl-2-oxoindolin-7-yl)ethyl)amino)ethyl)-2-oxooxazolidin-3-yl)-2H-pyrido[3,2-b][1,4]oxazin-3(4H)-one], for which the MIC in the experiment on A. baumannii ATCC 19606 is 0.03 µg/mL (≈ 0.0639 µM); with K. pneumoniae ATCC 13883 it was 0.125 µg/mL (≈ 0.266 µM); against E. faecalis ATCC 29212, 0.13 µg/mL (≈ 0.277 µM); against P. aurigenosa ATCC 27853, 0.5 µg/mL (≈ 1.07 µM); with E. coli ATCC 25922 it was 0.06 µg/mL (≈ 0.128 µM); in the experiment on S. aureus ATCC 29213 it was 0.03 µg/mL (≈ 0.0639 µM). For the same compound, the IC50 against E. coli DNA gyrase is 0.055 µM.
In the case of `CN1C(=O)Cc2ccc(F)c(CNCCCC3CN(c4ccc5c(n4)NC(=O)CO5)C(=O)O3)c21` (single isomer, unassigned) [Example 9, 6-(5-(3-(((6-fluoro-1-methyl-2-oxoindolin-7-yl)methyl)amino)propyl)-2-oxooxazolidin-3-yl)-2H-pyrido[3,2-b][1,4]oxazin-3(4H)-one], the “Minimum Inhibitory Concentration A. baumannii ATCC 19606” value in the experiment on A. baumannii ATCC 19606 (LB Media) was 0.125 µg/mL. Further, the MIC against K. pneumoniae ATCC 13883 was determined as 0.5 µg/mL (≈ 1.07 µM); in the experiment on E. faecalis ATCC 29212 it was 0.5 µg/mL (≈ 1.07 µM); in the experiment on P. aurigenosa ATCC 27853, 2 µg/mL (≈ 4.26 µM); in the experiment on E. coli ATCC 25922, 0.25 µg/mL (≈ 0.533 µM). For the same compound, the “Minimum Inhibitory Concentration S. aureus ATCC 29213” value in the experiment with S. aureus ATCC 29213 (LB Media) came to 0.13 µg/mL. On E. coli DNA gyrase, this compound yielded an IC50 of 0.089 µM.
For the compound `O=C(O)c1cn(C2CC2)c2cc(N3CCNCC3)c(F)cc2c1=O` [Ciprofloxacin, reference compound], the MIC in the experiment on A. baumannii ATCC 19606 is 0.4 µg/mL (≈ 1.21 µM); against K. pneumoniae ATCC 13883 it was 0.05 µg/mL (≈ 0.151 µM); against E. faecalis ATCC 29212, 0.4 µg/mL (≈ 1.21 µM); against P. aurigenosa ATCC 27853, 0.1 µg/mL (≈ 0.302 µM); against E. coli ATCC 25922, 0.012 µg/mL (≈ 0.0362 µM); against S. aureus ATCC 29213, 0.4 µg/mL (≈ 1.21 µM).
For `CN1C(=O)Cc2cccc(CNCCC3CN(c4ccc5c(n4)NC(=O)CO5)C(=O)O3)c21` (centres unmarked) [Example 1, 6-(5-(2-(((1-Methyl-2-oxoindolin-7-yl)methyl)amino)ethyl)-2-oxooxazolidin-3-yl)-2H-pyrido[3,2-b][1,4]oxazin-3(4H)-one], the MIC turned out to be 0.6 µg/mL (≈ 1.37 µM) with A. baumannii ATCC 19606; 10 µg/mL (≈ 22.9 µM) with K. pneumoniae ATCC 13883; 5 µg/mL (≈ 11.4 µM) with E. faecalis ATCC 29212; 40 µg/mL (≈ 91.4 µM) against P. aurigenosa ATCC 27853; 2.5 µg/mL (≈ 5.71 µM) with E. coli ATCC 25922; 5 µg/mL (≈ 11.4 µM) with S. aureus ATCC 29213.
As for `CN1C(=O)Cc2ccc(F)c(CNCCC3CN(c4ccc5c(n4)NC(=O)CO5)C(=O)O3)c21` (centres unmarked) [Example 2, 6-(5-(2-(((6-Fluoro-1-methyl-2-oxoindolin-7-yl)methyl)amino)ethyl)-2-oxooxazolidin-3-yl)-2H-pyrido[3,2-b][1,4]oxazin-3(4H)-on], the MIC against A. baumannii ATCC 19606 was 0.3 µg/mL (≈ 0.659 µM); in the experiment on K. pneumoniae ATCC 13883 it was 2.5 µg/mL (≈ 5.49 µM); with E. faecalis ATCC 29212, 1.25 µg/mL (≈ 2.74 µM); in the experiment with P. aurigenosa ATCC 27853, 10 µg/mL (≈ 22 µM); against E. coli ATCC 25922 it was 1.25 µg/mL (≈ 2.74 µM); in the experiment on S. aureus ATCC 29213, 0.6 µg/mL (≈ 1.32 µM). The compound further displayed an IC50 at E. coli DNA gyrase of 0.36 µM.
For `CN1C(=O)Cc2ccc(F)c(CNCCC3CN(c4ccc5c(c4)NC(=O)CO5)C(=O)O3)c21` (centres unmarked) [Example 3, 6-(5-(2-(((6-fluoro-1-methyl-2-oxoindolin-7-yl)methyl)amino)ethyl)-2-oxooxazolidin-3-yl)-2H-benzo[b][1,4]oxazin-3(4H)-one], the MIC against A. baumannii ATCC 19606 turned out to be 0.6 µg/mL (≈ 1.32 µM); with K. pneumoniae ATCC 13883 it was 5 µg/mL (≈ 11 µM); in the experiment with E. faecalis ATCC 29212, 1.25 µg/mL (≈ 2.75 µM); against P. aurigenosa ATCC 27853 it was 20 µg/mL (≈ 44 µM); against E. coli ATCC 25922, 1.25 µg/mL (≈ 2.75 µM); against S. aureus ATCC 29213 it was 0.6 µg/mL (≈ 1.32 µM).
`CN1C(=O)C(C)(C)c2ccc(F)c(CNCCC3CN(c4ccc5c(n4)NC(=O)CO5)C(=O)O3)c21` (centres unmarked) [Example 4, 6-(5-(2-(((6-fluoro-1,3,3-trimethyl-2-oxoindolin-7-yl)methyl)amino)ethyl)-2-oxooxazolidin-3-yl)-2H-pyrido[3,2-b][1,4]oxazin-3(4H)-one]: the MIC with A. baumannii ATCC 19606, against K. pneumoniae ATCC 13883, against E. faecalis ATCC 29212, with P. aurigenosa ATCC 27853, against E. coli ATCC 25922 and in the experiment with S. aureus ATCC 29213 was more than 80 µg/mL throughout. This compound gave a half-inhibitory concentration (IC50) against E. coli DNA gyrase of 14 µM.
Turning to `Cc1ncc(N2CC(CCNCc3c(F)ccc4c3N(C)C(=O)C4)OC2=O)cc1C#N` (centres unmarked) [Example 5, 5-(5-(2-(((6-Fluoro-1-methyl-2-oxoindolin-7-yl)methyl)amino)ethyl)-2-oxooxazolidin-3-yl)-2-methylnicotinonitrile], the MIC against A. baumannii ATCC 19606 was 40 µg/mL (≈ 94.5 µM); in the experiment with K. pneumoniae ATCC 13883 it was more than 80 µg/mL; in the experiment with E. faecalis ATCC 29212, 80 µg/mL (≈ 189 µM); against P. aurigenosa ATCC 27853, more than 80 µg/mL; in the experiment on E. coli ATCC 25922 it was 80 µg/mL (≈ 189 µM); against S. aureus ATCC 29213, 80 µg/mL (≈ 189 µM).
In the case of `CCN1C(=O)Cc2ccc(F)c(CNCCC3CN(c4ccc5c(n4)NC(=O)CO5)C(=O)O3)c21` (centres unmarked) [Example 7, 6-(5-(2-(((1-Ethyl-6-fluoro-2-oxoindolin-7-yl)methyl)amino)ethyl)-2-oxooxazolidin-3-yl)-2H-pyrido[3,2-b][1,4]oxazin-3(4H)-one], the MIC turned out to be 0.3 µg/mL (≈ 0.639 µM) against A. baumannii ATCC 19606; 5 µg/mL (≈ 10.7 µM) with K. pneumoniae ATCC 13883; 0.6 µg/mL (≈ 1.28 µM) against E. faecalis ATCC 29212; 20 µg/mL (≈ 42.6 µM) with P. aurigenosa ATCC 27853; 1.25 µg/mL (≈ 2.66 µM) in the experiment with E. coli ATCC 25922; 0.15 µg/mL (≈ 0.32 µM) in the experiment on S. aureus ATCC 29213.
For `CN1C(=O)Cc2ccc(F)c(C(O)CNCCC3CN(c4ccc5c(n4)NC(=O)CO5)C(=O)O3)c21` (centres unmarked) [Example 15, 6-(5-(2-((2-(6-fluoro-1-methyl-2-oxoindolin-7-yl)-2-hydroxyethyl)amino)ethyl)-2-oxooxazolidin-3-yl)-2H-pyrido[3,2-b][1,4]oxazin-3(4H)-one], the MIC with A. baumannii ATCC 19606 came out at 4 µg/mL (≈ 8.24 µM); against K. pneumoniae ATCC 13883, 2 µg/mL (≈ 4.12 µM); in the experiment on E. faecalis ATCC 29212, 2 µg/mL (≈ 4.12 µM); against P. aurigenosa ATCC 27853 it was 2 µg/mL (≈ 4.12 µM); in the experiment on E. coli ATCC 25922 it was 1 µg/mL (≈ 2.06 µM); against S. aureus ATCC 29213, 1 µg/mL (≈ 2.06 µM). It took 0.135 µM to reach half-maximal inhibition on E. coli DNA gyrase (IC50).
Consider `Cn1c(=O)oc2ccc(F)c(CCNCCC3CN(c4ccc5c(n4)NC(=O)CO5)C(=O)O3)c21` (centres unmarked) [Example 16, 6-(5-(2-((2-(5-Fluoro-3-methyl-2-oxo-2,3-dihydrobenzo[d]oxazol-4-yl)ethyl)amino)ethyl)-2-oxooxazolidin-3-yl)-2H-pyrido[3,2-b][1,4]oxazin-3(4H)-one], for which the MIC stood at 0.5 µg/mL (≈ 1.06 µM) in the experiment on A. baumannii ATCC 19606; 1 µg/mL (≈ 2.12 µM) in the experiment on K. pneumoniae ATCC 13883; 4 µg/mL (≈ 8.48 µM) against E. faecalis ATCC 29212; 4 µg/mL (≈ 8.48 µM) in the experiment with P. aurigenosa ATCC 27853; 0.5 µg/mL (≈ 1.06 µM) in the experiment with E. coli ATCC 25922; 4 µg/mL (≈ 8.48 µM) in the experiment with S. aureus ATCC 29213.
In the case of `CN1C(=O)Cc2ncc(F)c(CNCCCC3CN(c4ccc5c(n4)NC(=O)CO5)C(=O)O3)c21` (centres unmarked) [Example 17, 6-(5-(3-(((6-Fluoro-1-methyl-2-oxo-2,3-dihydro-1H-pyrrolo[3,2-b]pyridin-7-yl)methyl)amino)propyl)-2-oxooxazolidin-3-yl)-2H-pyrido[3,2-b][1,4]oxazin-3(4H)-one], the MIC with A. baumannii ATCC 19606 was 0.5 µg/mL (≈ 1.06 µM); in the experiment on K. pneumoniae ATCC 13883, 2 µg/mL (≈ 4.25 µM); in the experiment with E. faecalis ATCC 29212 it was 4 µg/mL (≈ 8.5 µM); against P. aurigenosa ATCC 27853 it was more than 16 µg/mL; with E. coli ATCC 25922, 1 µg/mL (≈ 2.13 µM); against S. aureus ATCC 29213, 1 µg/mL (≈ 2.13 µM).
